Source: patent US12171743B2, “Forms of aticaprant” (Janssen Pharmaceuticals, Inc., priority 2022, dated 2024)
Entries after “also recorded” stand apart in the source; their conditions may differ.

Key:
Format in all cases: physicochemical
[1] = Gravimetric vapor sorption (GVS)
Method: Sorption isotherms were obtained using a SMS DVS Intrinsic moisture sorption analyzer, controlled by DVS Intrinsic Control software. The sample temperature was maintained at 25° C. by the instrument controls. The humidity was controlled by mixing streams of dry and wet nitrogen, with a total flow rate of 200 mL/min. The relative humidity was measured by a calibrated Rotronic probe (dynamic range of 1.0-100% RH), located near the sample. The weight change, (mass relaxation) of the sample as a function of % RH was constantly monitored by a microbalance (accuracy ±0.005 mg).
Typically, 5-30 mg of sample was placed in a tared mesh stainless steel basket under ambient conditions. The sample was loaded and unloaded at 40% RH and 25° C. (typical room conditions). A moisture sorption isotherm was performed as outlined below (2 scans per complete cycle). The standard isotherm was performed at 25° C. at 10% RH intervals over a 0-90% RH range. Typically, a double cycle (4 scans) was carried out. Data analysis was carried out within Microsoft Excel using the DVS Analysis Suite. See, Table 15.
The sample was recovered after completion of the isotherm and re-analyzed by XRPD.

[2] = Competitive slurries of Forms I, II and III (thermodynamic stability)
Method: Competitive slurrying experiments were carried out with Form I, Form II and Form III to determine the relative order of stability. Slurrying experiments were carried out in six different solvent systems 5 and 50° C.
Saturated solutions of Form III were prepared in different solvent systems. See, Table 32. Each vial was filled with the relevant solvent (1.5 mL in each) and placed to equilibrate at the relevant temperature. After this time, small spatulas of the solid were added until the solid no longer dissolved. Samples were left to stir at 5° C. and 50° C. for ca. 2 weeks or longer as noted.
Form III (180 mg) and Form II (180 mg) were combined into a 4 mL vial. The sample was placed on a turbula blender for 30 mins, after which a small sample was taken and analyzed by XRPD to confirm a mixture. 10 mg of this mixture was weighed and a mixture of Form I and Form II was instead used as seeds in the competitive slurries. To each vial was added the mixture of Forms I and II (7 mg). See, Table 33.

[3] = Solubility observation of Form III in solvents
Method: Form III of aticaprant (20 mg) was weighed into 3 HPLC vials. Each vial was treated with 10 vol (250 μL) of the relevant solvent at 25° C. and shaken. The sample in t-BuOH was placed at 90° C. for a few seconds, where a solution was obtained. The solutions were filtered using a 0.45 μm PTFE membrane Acrodisc filter, before being flash frozen in an acetone/dry ice bath for 5 minutes. The samples were then freeze-dried overnight. The resulting solids were characterized by XRPD.
[…] Form III of aticaprant (20 mg) was dispensed into amber HPLC vials (×49) with a magnetic stirrer bar. Each vial was treated with the relevant solvent (5 vol) at RT and stirred at 300 rpm for 10 mins. If suspensions were still observed, increasing volumes of the solvent were added until the material fully dissolved or until a maximum of 80 vol had been used (Table 20). All samples were heated to 50° C. and held for 1 hour. The samples were then cooled to 5° C. at a rate of 0.1° C./min and left to stir overnight. Any suspensions remaining at this point were subjected to maturation at RT/50° C. for 2 weeks.

[4] = Static storage at elevated temperature and humidity, form by XRPD; conditions: for form (XRPD) after static storage: 1 week; for form after static storage: (10 days), Form II prepared at 1 g scale
Method: After static storage of amorphous aticaprant at 40° C./75% RH for 1 week, Form II was obtained.
Fresh amorphous aticaprant was prepared for static storage at 40° C./75% RH for 1 week. Both solvents produced amorphous aticaprant. Tg was determined to be 45.5° C. by mDSC. See, Table 19 for the characterization of amorphous aticaprant.
Form I was obtained in the screens from ethyl acetate and MEK (both through solvent evaporation). It also was obtained from addition of heptane antisolvent to solutions in ethyl acetate and diethyl ether. The sample from the solubility assessment in ethyl acetate was isolated and characterized by XRPD, ^1H NMR, and DSC (FIG. 7), and static storage at elevated temperature and humidity.

## Cc1cc(C)cc(C2CCCN2Cc2ccc(Oc3ccc(C(N)=O)cc3F)cc2)c1 (centres unmarked) [Form III]
[1]
  GVS hysteresis: No hysteresis observed
  XRPD / form after GVS: XRPD unchanged after GVS
[1]; at 90% RH, 25° C.
  GVS max uptake: 0.4% max uptake at 90% RH
[2]
  relative stability among Forms I, II and III (in words): most stable form
[3]; 70% THF/H2O, 250 μL/10 vol, RT
  solubility observation: Soluble, biphasic
[3]; t-BuOH at 90° C.
  solubility observation: (soluble at 90° C.)
[3]; t-BuOH, 250 μL/10 vol, 25° C.
  solubility observation: Insoluble

## Cc1cc(C)cc(C2CCCN2Cc2ccc(Oc3ccc(C(N)=O)cc3F)cc2)c1 (centres unmarked) [amorphous aticaprant]
[4]; 40° C./75% RH
  form (XRPD) after static storage: Form II
[4]; 40° C./75% RH, listed as amorphous Aticaprant
  form (XRPD) after static storage: Form II

## Cc1cc(C)cc(C2CCCN2Cc2ccc(Oc3ccc(C(N)=O)cc3F)cc2)c1 (centres unmarked) [Form I]
[4]
  stability after static storage at elevated temperature and humidity (in words): remains stable
[4]; 40° C./75% RH
  form (XRPD) after static storage: Form I

## Cc1cc(C)cc(C2CCCN2Cc2ccc(Oc3ccc(C(N)=O)cc3F)cc2)c1 (centres unmarked) [Form II]
[4]
  stability after static storage at elevated temperature and humidity (in words): remained stable
[4]; 25° C./97% RH
  form after static storage: Form II
[4]; 40° C./75% RH
  form after static storage: Form II
[1]
  GVS hysteresis: slight hysteresis
  XRPD / form after GVS: XRPD post-GVS: Form II
  hygroscopicity (in words): slightly hygroscopic; also recorded: Sample exhibits low hygroscopicity
